# Reference: ChEMBL document CHEMBL3259522, “Synthesis and biological evaluation of some 2-(3,5-dimethyl-1H-pyrazol-1-yl)-1-arylethanones: antibacterial, DNA photocleavage, and anticancer activities” (2014)
# Activity calls are given as the source filed them. The calls are words filed in the database; no cut-off is given here.
# Legend:
# Escherichia coli [1] = assay: Antibacterial activity against Escherichia coli assessed as diameter of growth inhibition zone after 24 hrs by two fold serial dilution method; assay type: functional
# Pseudomonas aeruginosa [2] = assay: Antibacterial activity against Pseudomonas aeruginosa assessed as diameter of growth inhibition zone after 24 hrs by two fold serial dilution method; assay type: functional
# Klebsiella pneumoniae [3] = assay: Antibacterial activity against Klebsiella pneumoniae assessed as diameter of growth inhibition zone after 24 hrs by two fold serial dilution method; assay type: functional
# Klebsiella pneumoniae [4] = assay: Antibacterial activity against Klebsiella pneumoniae assessed as growth inhibition after 24 hrs by two fold serial dilution method; assay type: functional
# Staphylococcus aureus [5] = assay: Antibacterial activity against Staphylococcus aureus assessed as diameter of growth inhibition zone after 24 hrs by two fold serial dilution method; assay type: functional
# Staphylococcus aureus [6] = assay: Antibacterial activity against Staphylococcus aureus assessed as growth inhibition after 24 hrs by two fold serial dilution method; assay type: functional
# Enterococcus [7] = assay: Antibacterial activity against Enterococcus assessed as diameter of growth inhibition zone after 24 hrs by two fold serial dilution method; assay type: functional
# Pseudomonas aeruginosa [8] = assay: Antibacterial activity against Pseudomonas aeruginosa assessed as growth inhibition after 24 hrs by two fold serial dilution method; assay type: functional
# Enterococcus [9] = assay: Antibacterial activity against Enterococcus assessed as growth inhibition after 24 hrs by two fold serial dilution method; assay type: functional
# Escherichia coli [10] = assay: Antibacterial activity against Escherichia coli assessed as growth inhibition after 24 hrs by two fold serial dilution method; assay type: functional
# HCT-116 [11] = assay: Anticancer activity against human HCT116 cells assessed as cell viability after 48 hrs by MTT assay; assay type: functional, cell-based
# [12] = Induction of DNA degradation in open circular plasmid DNA (unknown origin) by agarose gel electrophoresis in absence of UV light
# [13] = Induction of DNA degradation in supercoiled plasmid DNA (unknown origin) by agarose gel electrophoresis in absence of UV light
# HCT-116 [14] = assay: Anticancer activity against human HCT116 cells assessed as cell viability at 10 uM after 48 hrs by MTT assay; assay type: functional; settings: HCT-116, 48 h, read-out: Activity
# Escherichia coli [15] = assay: Antibacterial activity against Escherichia coli assessed as growth inhibition after 24 hrs by two fold serial dilution method relative to ampicillin; assay type: functional; parameters: scale not given: the % may be the effect or the level left
# HCT-116 [16] = assay: Anticancer activity against human HCT116 cells assessed as cell viability at 25 uM after 48 hrs by MTT assay; assay type: functional; settings: HCT-116, 48 h, read-out: Activity
# A549 = assay: Anticancer activity against human A549 cells assessed as cell viability after 72 hrs by MTT assay; assay type: functional, cell-based
# Pseudomonas aeruginosa [17] = assay: Antibacterial activity against Pseudomonas aeruginosa assessed as growth inhibition after 24 hrs by two fold serial dilution method relative to ampicillin; assay type: functional; parameters: scale not given: the % may be the effect or the level left
# Enterococcus [18] = assay: Antibacterial activity against Enterococcus assessed as growth inhibition after 24 hrs by two fold serial dilution method relative to ampicillin; assay type: functional; parameters: scale not given: the % may be the effect or the level left
# Staphylococcus aureus [19] = assay: Antibacterial activity against Staphylococcus aureus assessed as growth inhibition after 24 hrs by two fold serial dilution method relative to ampicillin; assay type: functional; parameters: scale not given: the % may be the effect or the level left
# HCT-116 [20] = assay: Anticancer activity against human HCT116 cells assessed as cell viability at 50 uM after 48 hrs by MTT assay; assay type: functional; settings: HCT-116, 48 h, read-out: Activity
# HCT-116 [21] = assay: Anticancer activity against human HCT116 cells assessed as cell viability after 72 hrs by MTT assay; assay type: functional, cell-based
# SK-OV-3 = assay: Anticancer activity against human SKOV3 cells assessed as cell viability after 72 hrs by MTT assay; assay type: functional, cell-based
# DU-145 [22] = assay: Anticancer activity against human DU145 cells assessed as cell viability after 72 hrs by MTT assay; assay type: functional, cell-based
# HT-29 [23] = assay: Anticancer activity against human HT-29 cells assessed as cell viability after 72 hrs by MTT assay; assay type: functional, cell-based
# [24] = Induction of DNA photocleavage in open circular plasmid DNA (unknown origin) at 60 ug by agarose gel electrophoresis in presence of UV light
# [25] = Induction of DNA photocleavage in supercoiled plasmid DNA (unknown origin) at 60 ug by agarose gel electrophoresis in presence of UV light
# HT-29 [26] = assay: Anticancer activity against human HT-29 cells assessed as cell viability at 50 uM after 72 hrs by MTT assay; assay type: functional, cell-based
# DU-145 [27] = assay: Anticancer activity against human DU145 cells assessed as cell viability at 50 uM after 72 hrs by MTT assay; assay type: functional, cell-based
# [28] = Induction of DNA photocleavage in supercoiled plasmid DNA (unknown origin) at 2.5 ug by agarose gel electrophoresis in presence of UV light
# [29] = Induction of DNA photocleavage in supercoiled plasmid DNA (unknown origin) at 30 ug by agarose gel electrophoresis in presence of UV light
# [30] = Induction of DNA photocleavage in supercoiled plasmid DNA (unknown origin) at 15 ug by agarose gel electrophoresis in presence of UV light
# [31] = Induction of DNA photocleavage in open circular plasmid DNA (unknown origin) at 2.5 ug by agarose gel electrophoresis in presence of UV light
# [32] = Induction of DNA photocleavage in open circular plasmid DNA (unknown origin) at 30 ug by agarose gel electrophoresis in presence of UV light
# [33] = Induction of DNA photocleavage in supercoiled plasmid DNA (unknown origin) at 1 ug by agarose gel electrophoresis in presence of UV light
# [34] = Induction of DNA photocleavage in open circular plasmid DNA (unknown origin) at 15 ug by agarose gel electrophoresis in presence of UV light
# [35] = Induction of DNA photocleavage in supercoiled plasmid DNA (unknown origin) at 5 ug by agarose gel electrophoresis in presence of UV light
# [36] = Induction of DNA photocleavage in open circular plasmid DNA (unknown origin) at 1 ug by agarose gel electrophoresis in presence of UV light
# [37] = Induction of DNA photocleavage in open circular plasmid DNA (unknown origin) at 5 ug by agarose gel electrophoresis in presence of UV light
SMILES,diameter of the inhibition zone (DIZ) (Escherichia coli [1]),diameter of the inhibition zone (DIZ) (Pseudomonas aeruginosa [2]),diameter of the inhibition zone (DIZ) (Klebsiella pneumoniae [3]),MIC (Klebsiella pneumoniae [4]),diameter of the inhibition zone (DIZ) (Staphylococcus aureus [5]),MIC (Staphylococcus aureus [6]),diameter of the inhibition zone (DIZ) (Enterococcus [7]),MIC (Pseudomonas aeruginosa [8]),MIC (Enterococcus [9]),MIC (Escherichia coli [10]),Activity (HCT-116 [11]),Activity [12],Activity [13],viability at 10 µM (HCT-116 [14]),viability at 25 µM (HCT-116 [16]),viability at 50 µM (HCT-116 [20]),Activity (SK-OV-3),Activity [24],Activity [25],Activity [29],also measured
CC1(C)S[C@@H]2[C@H](NC(=O)[C@H](N)c3ccccc3)C(=O)N2[C@H]1C(=O)O [AMPICILLIN],16 mm,14 mm,13 mm,2 µg/mL,16 mm,2 µg/mL,18 mm,8 µg/mL,2 µg/mL,8 µg/mL,–,–,–,–,–,–,–,–,–,–,–
Cc1cc(C)n(CC(=O)c2ccccc2F)n1,11 mm,11 mm,–,–,10 mm,256 µg/mL,10 mm,256 µg/mL,256 µg/mL,256 µg/mL,inactive,inactive,inactive,–,–,–,–,–,–,–,–
Cc1cc(C)n(CC(=O)c2ccc3ccccc3c2)n1,12 mm,14 mm,11 mm,64 µg/mL,10 mm,8 µg/mL,15 mm,64 µg/mL,16 µg/mL,16 µg/mL,–,inactive,inactive,56.8%,52.6%,36.5%,inactive,–,–,–,Activity (Escherichia coli [15]): 50%; Activity (A549): Active; Activity (Pseudomonas aeruginosa [17]): 12.5%; Activity (Enterococcus [18]): 12.5%; Activity (Staphylococcus aureus [19]): 25%; Activity (HCT-116 [21]): Active; Activity (DU-145 [22]): Active; Activity (HT-29 [23]): Active
Cc1cc(C)n(CC(=O)c2cccc3ccccc23)n1,–,–,–,–,–,–,12 mm,–,256 µg/mL,–,–,inactive,inactive,73.4%,60.8%,34.6%,inactive,Active,Active,–,Activity (A549): Active; Activity (HT-29 [26]): inactive; Activity (DU-145 [27]): inactive
Cc1cc(C)n(CC(=O)c2cccc(Cl)c2)n1,10 mm,–,–,–,–,–,10 mm,–,512 µg/mL,512 µg/mL,inactive,inactive,inactive,–,–,–,–,–,–,–,–
Cc1cc(C)n(CC(=O)c2ccccc2)n1,11 mm,13 mm,10 mm,64 µg/mL,10 mm,512 µg/mL,13 mm,64 µg/mL,512 µg/mL,512 µg/mL,–,inactive,inactive,81.4%,55.4%,52.4%,inactive,–,–,–,Activity (Escherichia coli [15]): 12.5%; Activity (Pseudomonas aeruginosa [17]): 12.5%; Activity (HT-29 [26]): inactive; Activity (DU-145 [27]): inactive
Cc1cc(C)n(CC(=O)c2ccc(F)cc2F)n1,9 mm,–,–,–,10 mm,256 µg/mL,10 mm,–,512 µg/mL,512 µg/mL,inactive,inactive,inactive,–,–,–,–,Active,Active,Active,Activity [28]: inactive; Activity [30]: inactive; Activity [31]: inactive; Activity [32]: Active; Activity [33]: inactive; Activity [34]: inactive; Activity [35]: inactive; Activity [36]: inactive; Activity [37]: inactive
Cc1ccc(C(=O)Cn2nc(C)cc2C)cc1,11 mm,–,–,–,11 mm,256 µg/mL,15 mm,–,64 µg/mL,512 µg/mL,inactive,inactive,inactive,–,–,–,–,–,–,–,–
Cc1cc(C)n(CC(=O)c2ccc(F)cc2)n1,15 mm,11 mm,9 mm,256 µg/mL,11 mm,256 µg/mL,15 mm,256 µg/mL,64 µg/mL,64 µg/mL,inactive,inactive,inactive,–,–,–,–,Active,Active,Active,Activity (Escherichia coli [15]): 12.5%; Activity [30]: Active; Activity (Pseudomonas aeruginosa [17]): 12.5%; Activity [32]: Active; Activity [34]: Active
Cc1cc(C)n(CC(=O)c2ccc(Cl)cc2)n1,14 mm,–,–,–,12 mm,256 µg/mL,12 mm,–,512 µg/mL,256 µg/mL,inactive,inactive,inactive,–,–,–,–,–,–,–,–
Cc1cc(C)n(CC(=O)c2ccc([N+](=O)[O-])cc2)n1,11 mm,–,–,–,13 mm,128 µg/mL,14 mm,–,256 µg/mL,256 µg/mL,inactive,inactive,inactive,–,–,–,–,Active,Active,Active,Activity [28]: Active; Activity [30]: Active; Activity [31]: Active; Activity [32]: Active; Activity [33]: Active; Activity [34]: Active; Activity [35]: Active; Activity [36]: Active; Activity [37]: Active
Cc1cc(C)n(CC(=O)c2ccc(Br)cc2)n1,14 mm,–,–,–,14 mm,32 µg/mL,12 mm,–,512 µg/mL,256 µg/mL,–,inactive,inactive,62.4%,55.9%,47.4%,inactive,Active,Active,Active,Activity [28]: Active; Activity [30]: Active; Activity [31]: Active; Activity [32]: Active; Activity [33]: Active; Activity [34]: Active; Activity (Staphylococcus aureus [19]): 6.25%; Activity [35]: Active; Activity (HT-29 [26]): inactive; Activity (DU-145 [27]): inactive; Activity [36]: Active; Activity [37]: Active
